Results as given in US20040191297A1, “Carotenoid formulation” (priority 1997, published 2004).

Key:
[1] = Carotenoid content of Lycopene Suspension-supplemented diets after 7 months storage; format: physicochemical; details: for Carotenoid content of diet: stored at −20 °C for 7 months
Procedure: When the Lycopene Suspension (Henkel Corporation, La Grange, Ill.) was extracted by organic extraction methods, the major carotenoid was lycopene, but a number of other carotenoids were known to be present in tomatoes, α- and β-Carotene, phytofluene and phytoene were also present (FIGS. 6 & 7). The quantitative profile of carotenoids in the Lycopene Suspension was carried out using an HPLC system as described above, equipped with a photodiode array detector. The six major components can be seen in Table 7.
(Table 10). Note that all the major carotenoids plus the lycopene metabolite present in the Lycopene Suspension are present in the diets in the same relative proportions. However, the net loss of lycopene over 7 months was 66%, 38%, 40%, 44% and 60%, in treatment groups 1-5, respectively; in contrast, β-carotene concentrations declined by only 10% of original values over the same time period.

[2] = Carotenoid content of livers of rats fed supplemented diets
Procedure: Breast, liver and prostate tissue contain lipids which interfere with the assay. Consequently, a saponification step was required prior to organic extraction. Tissue was homogenized in 20 ml methanol to which echinenone was added as internal standard. For breast tissue, which comprise of 85% adipocytes, 8.0 ml 50% NaOH and 4.0 ml 25% sodium ascorbate was added and the mixture was homogenized. For prostate and liver tissue, which contain less lipid, 4.0 ml and 50% NaOH. and 2.0 ml sodium ascorbate were added and the mixture was
homogenized. Saponification was carried out in 50 ml tubes saturated with N2 gas overnight in a temperature controlled shaker bath at 30° C. Following saponification, 10 ml hexane was add d to each tube and vortexed for 1 minute. The mixture was then centrifuged at 2000 rpm for 10 min at 4° C. and the hexane layer was decanted and saved. This hexane extraction procedure was repeated 5-7 times. The pooled hexane extract was then dried under N2 gas at 60° C., dissolved in injection solvent and analyzed by HPLC. Lung and colon tissue were processed in an identical manner with the exception that the saponification step was omitted.

[3] = female rats, Diet 1, 2.5 mM/kg diet
[4] = female rats, Diet 2, 1.0 mM/kg diet
[5] = female rats, Diet 3, 0.5 mM/kg diet
[6] = female rats, Diet 4, 0.25 mM/kg diet
[7] = female rats, Diet 5, 0.10 mM/kg diet
[8] = male rats, Diet 1, 2.5 mM/kg diet
[9] = male rats, Diet 2, 1.0 mM/kg diet
[10] = male rats, Diet 3, 0.5 mM/kg diet
[11] = male rats, Diet 5, 0.10 mM/kg diet

## CC(C)=CCC/C(C)=C/C=C/C(C)=C/C=C/C(C)=C/C=C/C=C(C)/C=C/C=C(C)/C=C/C1C(C(C)(C)O)CCC1(C)O (stereo not drawn) [2,6 cyclolycopene-1,5-diol]
[1]; Diet 1, 2.5 mM/kg diet
  Carotenoid content of diet: 2 μg/gm (ppm)
[1]; Diet 2, 1.0 mM/kg diet
  Carotenoid content of diet: 1.4 μg/gm (ppm)
[1]; Diet 3, 0.5 mM/kg diet
  Carotenoid content of diet: 0.76 μg/gm (ppm)
[1]; Diet 4, 0.25 mM/kg diet
  Carotenoid content of diet: 0.46 μg/gm (ppm)
[1]; Diet 5, 0.10 mM/kg diet
  Carotenoid content of diet: 0.14 μg/gm (ppm)
[2]; [3]
  Carotenoid content of liver: 9 μg/gm (ppm)
[2]; [4]
  Carotenoid content of liver: 5 μg/gm (ppm)
[2]; [5]
  Carotenoid content of liver: 7 μg/gm (ppm)
[2]; [6]
  Carotenoid content of liver: 4 μg/gm (ppm)
[2]; [7]
  Carotenoid content of liver: 6 μg/gm (ppm)
[2]; [8]
  Carotenoid content of liver: 4 μg/gm (ppm)
[2]; [9]
  Carotenoid content of liver: .39 μg/gm (ppm)
[2]; [10]
  Carotenoid content of liver: 4 μg/gm (ppm)
[2]; male rats, Diet 4, 0.25 mM/kg diet
  Carotenoid content of liver: .28 μg/gm (ppm)
[2]; [11]
  Carotenoid content of liver: .34 μg/gm (ppm)

## CC(C)=CCC/C(C)=C/CC/C(C)=C/CC/C(C)=C/C=C/C=C(\C)CC/C=C(\C)CC/C=C(\C)CCC=C(C)C [Phytoene]
[1]; Diet 1, 2.5 mM/kg diet
  Carotenoid content of diet: 70 μg/gm (ppm)
[1]; Diet 2, 1.0 mM/kg diet
  Carotenoid content of diet: 23 μg/gm (ppm)
[1]; Diet 3, 0.5 mM/kg diet
  Carotenoid content of diet: 0.32 μg/gm (ppm)
[1]; Diet 4, 0.25 mM/kg diet
  Carotenoid content of diet: 5 μg/gm (ppm)
[1]; Diet 5, 0.10 mM/kg diet
  Carotenoid content of diet: 1 μg/gm (ppm)
[2]; [3]
  Carotenoid content of liver: 66 μg/gm (ppm)
[2]; [4]
  Carotenoid content of liver: 35 μg/gm (ppm)
[2]; [5]
  Carotenoid content of liver: 40 μg/gm (ppm)
[2]; [6]
  Carotenoid content of liver: 46 μg/gm (ppm)
[2]; [7]
  Carotenoid content of liver: 38 μg/gm (ppm)
[2]; [8]
  Carotenoid content of liver: 23 μg/gm (ppm)
[2]; [9]
  Carotenoid content of liver: 4 μg/gm (ppm)
[2]; [10]
  Carotenoid content of liver: 21 μg/gm (ppm)
[2]; [11]
  Carotenoid content of liver: 10 μg/gm (ppm)

## CC(C)=CCC/C(C)=C/CC/C(C)=C/C=C/C(C)=C/C=C/C=C(\C)CC/C=C(\C)CC/C=C(\C)CCC=C(C)C [Phytofluene]
[1]; Diet 1, 2.5 mM/kg diet
  Carotenoid content of diet: 58 μg/gm (ppm)
[1]; Diet 2, 1.0 mM/kg diet
  Carotenoid content of diet: 28 μg/gm (ppm)
[1]; Diet 3, 0.5 mM/kg diet
  Carotenoid content of diet: 14 μg/gm (ppm)
[1]; Diet 4, 0.25 mM/kg diet
  Carotenoid content of diet: 8 μg/gm (ppm)
[1]; Diet 5, 0.10 mM/kg diet
  Carotenoid content of diet: 2 μg/gm (ppm)
[2]; [3]
  Carotenoid content of liver: 106 μg/gm (ppm)
[2]; [4]
  Carotenoid content of liver: 48 μg/gm (ppm)
[2]; [5]
  Carotenoid content of liver: 50 μg/gm (ppm)
[2]; [6]
  Carotenoid content of liver: 46 μg/gm (ppm)
[2]; [7]
  Carotenoid content of liver: 33 μg/gm (ppm)
[2]; [8]
  Carotenoid content of liver: 30 μg/gm (ppm)
[2]; [9]
  Carotenoid content of liver: 5 μg/gm (ppm)
[2]; [10]
  Carotenoid content of liver: 34 μg/gm (ppm)
[2]; [11]
  Carotenoid content of liver: 10 μg/gm (ppm)

## CC(C)=CCC/C(C)=C/CC/C(C)=C/C=C/C(C)=C/C=C/C=C(C)/C=C/C=C(\C)CC/C=C(\C)CCC=C(C)C [zeta-carotene]
[1]; Diet 1, 2.5 mM/kg diet
  Carotenoid content of diet: 1 μg/gm (ppm)
[1]; Diet 2, 1.0 mM/kg diet
  Carotenoid content of diet: 9 μg/gm (ppm)
[1]; Diet 3, 0.5 mM/kg diet
  Carotenoid content of diet: 4 μg/gm (ppm)
[1]; Diet 4, 0.25 mM/kg diet
  Carotenoid content of diet: 2 μg/gm (ppm)
[1]; Diet 5, 0.10 mM/kg diet
  Carotenoid content of diet: 0 μg/gm (ppm)

## CC1=C(/C=C/C(C)=C/C=C/C(C)=C/C=C/C=C(C)/C=C/C=C(C)/C=C/C2=C(C)CCCC2(C)C)C(C)(C)CCC1 [β-carotene]
[1]; Diet 1, 2.5 mM/kg diet
  Carotenoid content of diet: 284 μg/gm (ppm)
[1]; Diet 2, 1.0 mM/kg diet
  Carotenoid content of diet: 138 μg/gm (ppm)
[1]; Diet 3, 0.5 mM/kg diet
  Carotenoid content of diet: 69 μg/gm (ppm)
[1]; Diet 4, 0.25 mM/kg diet
  Carotenoid content of diet: 37 μg/gm (ppm)
[1]; Diet 5, 0.10 mM/kg diet
  Carotenoid content of diet: 8 μg/gm (ppm)
[1]; diets, 7 months storage
  decline of concentration from original values: 10%
